Source: ChEMBL document CHEMBL1201862, “PubChem BioAssay data set” (2004)
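Exposure lasted 48 hours, with cells grown in 96-well plates and compounds tested at five concentrations. GI50: concentration for 50% inhibition of growth.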 Active and inactive are the calls of the source. Rule as the data show it: active = GI50 up to about 1.1 µM and inactive = higher.

Key:
Assay in all cases: NCI tumour cell line growth inhibition, 48 h
[1] = test system: XF498
[2] = test system: DMS-273
[3] = test system: DMS-114
[4] = test system: DLD-1
[5] = test system: HOP-18
[6] = test system: SNB-78
[7] = test system: RXF 631
[8] = test system: KM-20L2
[9] = test system: M19-MEL

Structure (SMILES) | GI50 [1] | GI50 [2] | GI50 [3] | GI50 [4] | GI50 [5] | GI50 [6] | GI50 [7] | GI50 [8] | GI50 [9]
Cc1nn(-c2ccccc2)c(S)c1C(=O)c1ccccc1 | 35.2 µM (inactive) | 40.1 µM (inactive) | 26.4 µM (inactive) | 4.85 µM (inactive) | < 0.01 µM (active) | 24.4 µM (inactive) | 27 µM (inactive) | 53 µM (inactive) | –
CC(C)(C)OC(=O)N[C@H]1CC(O)c2ccccc2N(CC(=O)O)C1=O (some centres not stated) | > 100 µM (inactive) | > 100 µM (inactive) | > 100 µM (inactive) | > 100 µM (inactive) | > 100 µM (inactive) | – | > 100 µM (inactive) | > 100 µM (inactive) | > 100 µM (inactive)
N=C(N)/N=C(/C=C/c1ccccc1)CC1OC(=O)c2ccccc21 (configuration not stated) | > 100 µM (inactive) | > 100 µM (inactive) | > 100 µM (inactive) | > 100 µM (inactive) | – | – | – | > 100 µM (inactive) | > 100 µM (inactive)
CC12Oc3ccc4ccccc4c3CC1Cc1c(ccc3ccccc13)O2 (configuration not stated) | – | 18.8 µM (inactive) | 60.1 µM (inactive) | 58.1 µM (inactive) | 35.9 µM (inactive) | – | – | > 100 µM (inactive) | > 100 µM (inactive)
CCOC(=O)C1=C(C)N(C2OC(COC(C)=O)C(OC(C)=O)C(OC(C)=O)C2OC(C)=O)C(=O)NC1c1ccccc1 (configuration not stated) | – | – | > 100 µM (inactive) | > 100 µM (inactive) | > 100 µM (inactive) | > 100 µM (inactive) | > 100 µM (inactive) | > 100 µM (inactive) | > 100 µM (inactive)
COc1ccc2c(c1)[n+]([O-])c(C(=O)C/C(=N/OCCCc1ccccc1)C(=O)NC13CC4CC(CC(C4)C1)C3)c(C)[n+]2[O-] | > 100 µM (inactive) | > 100 µM (inactive) | > 100 µM (inactive) | > 100 µM (inactive) | > 100 µM (inactive) | > 100 µM (inactive) | > 100 µM (inactive) | > 100 µM (inactive) | > 100 µM (inactive)
COc1ccc(/C=N/N=C(\N)NO)c(OC)c1C | – | – | 13.2 µM (inactive) | 29 µM (inactive) | 5.24 µM (inactive) | 20.5 µM (inactive) | – | – | –
C/C=C1\CCC2c3[nH]c4ccccc4c3CCN2C1 (configuration not stated) | 17.1 µM (inactive) | > 100 µM (inactive) | 91.8 µM (inactive) | > 100 µM (inactive) | – | > 100 µM (inactive) | – | 45.6 µM (inactive) | > 100 µM (inactive)
CSc1nc2c(c(O)c(C)c(=O)n2C2OCC(OC(C)=O)C(OC(C)=O)C2OC(C)=O)c(=O)n1C (configuration not stated) | – | – | > 100 µM (inactive) | > 100 µM (inactive) | – | > 100 µM (inactive) | – | > 100 µM (inactive) | > 100 µM (inactive)
Cc1ccc(Cc2c(=O)[nH]nc3ccccc23)cc1 | 30.2 µM (inactive) | > 100 µM (inactive) | > 100 µM (inactive) | > 100 µM (inactive) | > 100 µM (inactive) | > 100 µM (inactive) | > 100 µM (inactive) | > 100 µM (inactive) | > 100 µM (inactive)
Cc1cc2c(C)n(Cc3ccc(Cl)cc3Cl)nc2c(C(=O)O)c1C | > 100 µM (inactive) | > 100 µM (inactive) | – | > 100 µM (inactive) | > 100 µM (inactive) | > 100 µM (inactive) | > 100 µM (inactive) | > 100 µM (inactive) | > 100 µM (inactive)
CCCCCCCCCCCCCCCc1ccc(OCC(O)CO)cc1 (configuration not stated) | 19.4 µM (inactive) | 17.7 µM (inactive) | 29.7 µM (inactive) | 44.2 µM (inactive) | > 100 µM (inactive) | 29.7 µM (inactive) | 27.1 µM (inactive) | 31.6 µM (inactive) | 18 µM (inactive)
OCC(O)COc1ccc(Br)cc1 (configuration not stated) | > 100 µM (inactive) | > 100 µM (inactive) | > 100 µM (inactive) | > 100 µM (inactive) | > 100 µM (inactive) | – | > 100 µM (inactive) | > 100 µM (inactive) | –
O=C(CC1C(=O)c2ccccc2C1=C1C(=O)c2ccccc2C1=O)c1ccccc1 (configuration not stated) | > 100 µM (inactive) | > 100 µM (inactive) | > 100 µM (inactive) | > 100 µM (inactive) | > 100 µM (inactive) | > 100 µM (inactive) | – | > 100 µM (inactive) | 78.9 µM (inactive)
CCCCC(C(=O)C(=O)Nc1ccc(C)cc1C)C(=O)C(C)C (configuration not stated) | > 100 µM (inactive) | > 100 µM (inactive) | > 100 µM (inactive) | > 100 µM (inactive) | > 100 µM (inactive) | > 100 µM (inactive) | > 100 µM (inactive) | > 100 µM (inactive) | > 100 µM (inactive)
O=C(O)C1CC2CC(=O)C1C2 (configuration not stated) | > 100 µM (inactive) | > 100 µM (inactive) | – | > 100 µM (inactive) | > 100 µM (inactive) | > 100 µM (inactive) | > 100 µM (inactive) | > 100 µM (inactive) | > 100 µM (inactive)
S=C(N/N=C/c1ccccc1)NC1CC(c2ccccc2)Oc2ccccc21 (configuration not stated) | 34.5 µM (inactive) | 66.7 µM (inactive) | 43.2 µM (inactive) | 91.8 µM (inactive) | – | 22 µM (inactive) | – | – | > 100 µM (inactive)
O=C(N/C(=C\c1ccc([N+](=O)[O-])cc1)c1nc2ccccc2s1)c1ccccc1 | 44.8 µM (inactive) | 35.7 µM (inactive) | 23.3 µM (inactive) | 19.9 µM (inactive) | 18.5 µM (inactive) | 37.4 µM (inactive) | – | 40.7 µM (inactive) | 22.9 µM (inactive)
CCC1CC(C)=CCN1S(=O)(=O)c1ccc(C)cc1 (configuration not stated) | – | 22 µM (inactive) | 15.9 µM (inactive) | – | – | – | – | 19.2 µM (inactive) | –
O=C(CC1C(=O)Nc2ccccc2[S+]1[O-])Nc1cccc(Cl)c1 (configuration not stated) | > 100 µM (inactive) | – | 47.1 µM (inactive) | > 100 µM (inactive) | > 100 µM (inactive) | 40.9 µM (inactive) | – | > 100 µM (inactive) | > 100 µM (inactive)
Cc1ccccc1C1SCc2nc3ccccc3n21 (configuration not stated) | – | 4.6 µM (inactive) | 6.79 µM (inactive) | > 100 µM (inactive) | > 100 µM (inactive) | > 100 µM (inactive) | – | – | > 100 µM (inactive)
CCOc1ccc(NCC2CC/C(=C\c3ccc(Cl)cc3)C2=O)cc1 (configuration not stated) | 19.3 µM (inactive) | > 39.8 µM (inactive) | 26.4 µM (inactive) | 10 µM (inactive) | 22.1 µM (inactive) | 98.9 µM (inactive) | – | > 38.3 µM (inactive) | > 42.4 µM (inactive)
CN/C(=N\C#N)N(Cc1ccccc1)Cc1ccccc1 | > 100 µM (inactive) | > 100 µM (inactive) | – | > 100 µM (inactive) | – | > 100 µM (inactive) | – | > 100 µM (inactive) | > 100 µM (inactive)
O=C(Nc1ccc(Cl)cc1)C1C(=O)C(=O)N(c2ccc(Cl)cc2)C1=O (configuration not stated) | > 100 µM (inactive) | > 100 µM (inactive) | > 100 µM (inactive) | 68.9 µM (inactive) | > 100 µM (inactive) | 54 µM (inactive) | > 100 µM (inactive) | 45.8 µM (inactive) | > 100 µM (inactive)
COc1ccc(OC)c(/C=C/C(=O)C(C)(C)C)c1 | – | 21.1 µM (inactive) | 15.2 µM (inactive) | 19.9 µM (inactive) | 21.3 µM (inactive) | – | 32.8 µM (inactive) | 23.6 µM (inactive) | 16.3 µM (inactive)
C/C(CN1C(=O)c2ccccc2C1=O)=N\NS(=O)(=O)c1ccccc1 | – | > 100 µM (inactive) | > 100 µM (inactive) | > 100 µM (inactive) | > 100 µM (inactive) | > 100 µM (inactive) | > 100 µM (inactive) | > 100 µM (inactive) | > 100 µM (inactive)
COc1cc2cc3c4c(cc(OC)c(OC)c4c2cc1OC)CCN3C(=O)CCCC(=O)O | – | > 100 µM (inactive) | > 100 µM (inactive) | > 100 µM (inactive) | – | 48.1 µM (inactive) | – | > 100 µM (inactive) | > 100 µM (inactive)
C[C@@H]1C[C@]2(C[C@@H](C)[C@H]3C(C[C@@]4(C)CCC[C@@H]5C6=C[C@H](CCC34C)OC6=CC(=O)OC5(C)C)O2)OC1=O (some centres not stated) | > 51.5 µM (inactive) | > 51.5 µM (inactive) | > 51.5 µM (inactive) | > 51.5 µM (inactive) | > 51.5 µM (inactive) | > 51.5 µM (inactive) | – | > 51.5 µM (inactive) | > 51.5 µM (inactive)
O=C1CCC2(c3ccc(F)cc3)Nc3ccccc3N12 (configuration not stated) | > 100 µM (inactive) | – | > 100 µM (inactive) | > 100 µM (inactive) | – | > 100 µM (inactive) | > 100 µM (inactive) | > 100 µM (inactive) | > 100 µM (inactive)
